Laboratory results from patent US20250206747A1, “COELENTERAZINE ANALOGUES” (priority 2023, published 2025).
Where two headings read alike, the source gives them in different places.

Assays:
NANOLUC® luciferase [1] = molecular target: T1, NANOLUC® luciferase (Oplophorus gracilirostris, UniProt Q9GV45, A31E/A60N/A81I/F95D/I117V/K70R/L54V/L99Q/M102K/N193R/P142E/Q151K/Q38R/Q45L/V71I/Y165I); experiment: Luminescent spectra of NANOLUC luciferase in the presence of coelenterazine analogue (peak emission); format: biochemical; details: for λ max (nm): peak luminescence emission with NANOLUC luciferase
Procedure: FIGS. 1A-1B show kinetic and spectral properties of coelenterazine analogues. (FIG. 1A) Michaelis-Menten analysis determining the relative luminescence produced by 0.01 nM NANOLUC® luciferase at various concentrations of coelenterazine analogues. […] (FIG. 1B) Luminescent spectra of 0.5 nM NANOLUC® luciferase in the presence of 20 μM coelenterazine analogue.
Experiments were conducted during the development of embodiments herein to test the effect of derivatization on the biochemical properties of novel coelenterazine analogues. Properties tested include the analogues' ability to be utilized by NANOLUC® luciferase, as assessed through the determination of Vmax and KM, as well as the peak wavelength of luminescence emission.

NANOLUC® luciferase [2] = molecular target: T1, NANOLUC® luciferase; experiment: Michaelis-Menten analysis of relative luminescence produced by NANOLUC luciferase at various concentrations of coelenterazine analogues; format: biochemical; details: 0.01 nM NANOLUC luciferase; for Vmax (norm): normalised to furimazine = 1; for Km: read-out: Km

T1 sequence (Q9GV45 other isoform, or with tags, fused parts or gaps with the stated changes): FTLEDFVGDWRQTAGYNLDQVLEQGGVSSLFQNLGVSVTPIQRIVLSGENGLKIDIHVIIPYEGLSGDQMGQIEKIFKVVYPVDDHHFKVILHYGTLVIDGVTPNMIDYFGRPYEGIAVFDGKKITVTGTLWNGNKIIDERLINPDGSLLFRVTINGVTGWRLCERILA

SMILES	λ max (nm) (NANOLUC® luciferase [1]; Table 1)	Vmax (norm) (NANOLUC® luciferase [2]; Table 1)	λ max (nm) (NANOLUC® luciferase [1]; Table 2)	Vmax (norm) (NANOLUC® luciferase [2]; Table 2)	further results
O=C1C(Cc2ccco2)N=C2C(c3cncc(Cl)c3)=NC(c3ccccc3)=CN12 (stereo not shown) [Compound 9812, 8-(5-chloropyridin-3-yl)-2-(furan-2-ylmethyl)-6-phenylimidazo[1,2-a]pyrazin-3(7H)-one]					shift of peak emission relative to compound 7314 (NANOLUC® luciferase [1]; reacted with NANOLUC luciferase, chloropyridin group in place of phenyl ring of 7314): red-shift the peak emission
O=c1c(Cc2ccco2)nc2c(-c3cnnc(Cl)c3)[nH]c(-c3ccccc3)cn1-2 [Compound 9894, 8-(6-Chloropyridazin-4-yl)-2-(furan-2-ylmethyl)-6-phenylimidazo[1,2-a]pyrazin-3(7H)-one]					peak emission (λem) (NANOLUC® luciferase [1]; Scheme 1, 0.5 nM NANOLUC luciferase, 20 μM coelenterazine analogue): 622 nm
O=c1c(Cc2ccco2)nc2c(-c3cnnc(Cl)c3)[nH]c(-c3cccc(F)c3)cn1-2 [Compound 10299]	622 nm	0.000505			
COc1cccc(-c2cn3c(=O)c(Cc4ccco4)nc-3c(-c3cnnc(Cl)c3)[nH]2)c1 [Compound 10300]		0.000505			
O=c1c(Cc2ccco2)nc2c(-c3cnnc(Cl)c3)[nH]c(-c3cccc(F)c3F)cn1-2 [Compound 10427, 8-(6-chloropyridazin-4-yl)-6-(2,3-difluorophenyl)-2-(furan-2-ylmethyl)imidazo[1,2-a]pyrazin-3(7H)-one]			600 nm	0.0015	
O=c1c(Cc2ccco2)nc2c(Cc3ccccc3)[nH]c(-c3ccccc3)cn1-2 [Furimazine, reference compound]	466 nm	1	462 nm	1	Km (NANOLUC® luciferase [2]; Table 1): 0.23 µM; Km (NANOLUC® luciferase [2]; Table 2): 0.56 µM
